According to US11655217B2, “Pyrazole MAGL inhibitors” (H. Lundbeck A/S, priority 2017, dated 2023):

What was measured:
[1] = target: MAGL (Mus musculus (Mouse), UniProt O35678); test: Mouse brain proteomes from inhibitor treated mice (oral gavage, sacrificed 4 h after administration, ABPP analysis); conditions: 5 mg/kg oral gavage
Experimental: (§1) Preparation of Mouse Brain Proteomes from Inhibitor Treated Mice.
(§2) Inhibitors were administered to wild-type C57Bl/6J by oral gavage in a vehicle of polyethylene glycol.

[2] = target: FAAH (Mus musculus (Mouse), UniProt O08914); test: Mouse brain proteomes from inhibitor treated mice (oral gavage, sacrificed 4 h after administration, ABPP analysis), FAAH; conditions: 5 mg/kg oral gavage
Chain of FAAH (O08914 whole entry): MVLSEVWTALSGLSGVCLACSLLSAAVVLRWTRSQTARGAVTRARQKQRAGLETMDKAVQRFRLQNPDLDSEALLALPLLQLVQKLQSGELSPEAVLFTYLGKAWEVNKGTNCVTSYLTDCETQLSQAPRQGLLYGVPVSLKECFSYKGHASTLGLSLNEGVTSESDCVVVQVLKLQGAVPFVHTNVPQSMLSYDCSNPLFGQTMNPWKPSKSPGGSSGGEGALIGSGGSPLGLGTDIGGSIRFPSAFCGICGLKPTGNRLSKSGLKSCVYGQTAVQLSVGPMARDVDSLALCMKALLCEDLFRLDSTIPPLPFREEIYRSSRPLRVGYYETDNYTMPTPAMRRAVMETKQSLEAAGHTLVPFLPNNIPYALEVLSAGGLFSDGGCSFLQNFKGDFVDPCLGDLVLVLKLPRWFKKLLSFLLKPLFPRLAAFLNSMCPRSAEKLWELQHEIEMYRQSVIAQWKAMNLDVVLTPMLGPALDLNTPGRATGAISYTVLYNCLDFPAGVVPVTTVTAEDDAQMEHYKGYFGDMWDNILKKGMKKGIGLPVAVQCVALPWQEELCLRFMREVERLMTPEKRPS
Experimental: as §1, §2

Chain of MAGL (O35678 whole entry): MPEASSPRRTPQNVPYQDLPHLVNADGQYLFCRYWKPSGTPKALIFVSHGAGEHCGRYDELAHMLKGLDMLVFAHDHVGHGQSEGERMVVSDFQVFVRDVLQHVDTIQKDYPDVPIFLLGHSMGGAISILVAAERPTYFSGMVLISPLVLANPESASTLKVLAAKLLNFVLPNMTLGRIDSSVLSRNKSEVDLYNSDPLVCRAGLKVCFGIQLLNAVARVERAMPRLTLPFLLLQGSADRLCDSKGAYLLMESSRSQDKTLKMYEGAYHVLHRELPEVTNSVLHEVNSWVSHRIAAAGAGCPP

| Structure (SMILES) | MAGL % inh. 5 mg/kg (mouse) [1] | FAAH % inh. 5 mg/kg (mouse) [2] |
| --- | --- | --- |
| O=C(O)c1ccn(C(=O)N2CCN(Cc3ccc(C(F)(F)F)cc3N3CC[C@@H](F)C3)CC2)n1 [Example 101, (R)-1-(4-(2-(3-fluoropyrrolidin-1-yl)-4-(trifluoromethyl)benzyl)piperazine-1-carbonyl)-1H-pyrazole-3-carboxylic acid] | D (% inhibition is greater than or equal to 0% and less than 25%) | D (% inhibition is greater than or equal to 0% and less than 25%) |
| O=C(O)c1ccn(C(=O)N2CCN(Cc3ccc(C(F)(F)F)cc3N3CCN4CCC[C@@H]4C3)CC2)n1 [Example 48, (R)-1-(4-(2-(hexahydropyrrolo-[1,2-a]pyrazin-2(1H)-yl)-4-(trifluoromethyl)benzyl)piperazine-1-carbonyl)-1H-pyrazole-3-carboxylic acid] | D (% inhibition is greater than or equal to 0% and less than 25%) | D (% inhibition is greater than or equal to 0% and less than 25%) |
| O=C(O)c1ccn(C(=O)N2CCN(Cc3ccc(C(F)(F)F)cc3N3C4CCC3COC4)CC2)n1 [Example 118, 1-(4-(2-(3-oxa-8-azabicyclo[3.2.1]octan-8-yl)-4-(trifluoromethyl)benzyl)piperazine-1-carbonyl)-1H-pyrazole-3-carboxylic acid] | D (% inhibition is greater than or equal to 0% and less than 25%) | D (% inhibition is greater than or equal to 0% and less than 25%) |
| O=C(O)c1ccn(C(=O)N2CC3CN(Cc4cccc(Oc5ccc(Cl)cc5)c4)CC3C2)n1 (stereo not shown) [Example 116, 1-(5-(3-(4-chlorophenoxy)benzyl)octahydro-pyrrolo[3,4-c]pyrrole-2-carbonyl)-1H-pyrazole-3-carboxylic acid] | D (% inhibition is greater than or equal to 0% and less than 25%) | D (% inhibition is greater than or equal to 0% and less than 25%) |
| O=C(O)c1ccn(C(=O)N2CCN(Cc3ccc(C(F)(F)F)cc3N3CCOCC3)CC2)n1 [Example 3, 1-(4-(2-Morpholino-4-(trifluoromethyl)benzyl)piperazine-1-carbonyl)-1H-pyrazole-3-carboxylic Acid] | D (% inhibition is greater than or equal to 0% and less than 25%) | D (% inhibition is greater than or equal to 0% and less than 25%) |
| O=C(O)c1ccn(C(=O)N2C[C@H]3C[C@H](OCc4cccc(C(F)(F)F)c4)C[C@H]3C2)n1 [Example 157, 1-(trans-5-((3-(trifluoromethyl)benzyl)oxy)octa-hydrocyclopenta[c]pyrrole-2-carbonyl)-1H-pyrazole-3-carboxylic acid] | D (% inhibition is greater than or equal to 0% and less than 25%) | D (% inhibition is greater than or equal to 0% and less than 25%) |
| C[C@@H]1CCCN1c1cc(C(F)(F)F)ccc1CN1CCN(C(=O)n2ccc(C(=O)O)n2)CC1 [Example 95, (R)-1-(4-(2-(2-methylpyrrolidin-1-yl)-4-(trifluoromethyl)benzyl)piperazine-1-carbonyl)-1H-pyrazole-3-carboxylic acid] | D (% inhibition is greater than or equal to 0% and less than 25%) | D (% inhibition is greater than or equal to 0% and less than 25%) |
| CC(C)(O)C1CCN(c2cc(C(F)(F)F)ccc2CN2CCN(C(=O)n3ccc(C(=O)O)n3)CC2)CC1 [Example 109, 1-(4-(2-(4-(2-hydroxypropan-2-yl)piperidin-1-yl)-4-(trifluoromethyl)benzyl)piperazine-1-carbonyl)-1H-pyrazole-3-carboxylic acid] | D (% inhibition is greater than or equal to 0% and less than 25%) | D (% inhibition is greater than or equal to 0% and less than 25%) |
